Measured values from patent publication US10624893B2 (priority 2016, dated 2020).
Values after ≈ are worked out from the molar mass of the structure shown. Like-named read-outs stand apart in the source and are kept apart here.

Key:
[1] = tested on: Mycobacterium tuberculosis growing inside murine Raw 264.7 cell line; assay: microbe, parasite or virus in culture; assay type: cell-based; details: H37RV, RAW264.7, 120 h
[2] = tested on: Mycobacterium tuberculosis (H37Rv strain from ATCC cat #27294) expressing the green-fluorescent protein (GFP); assay: microbe, parasite or virus in culture; assay type: cell-based; details: 120 h
[3] = tested on: M. tuberculosis H37Rv strain; details: for reduction of microorganism burden in lungs with respect to untreated controls (Day 9): C57BL/6 mice
[4] = tested on: Mycobacterium tuberculosis growing inside human THP-1 monocytes; assay: Intracellular viability assay 1b (THP-1, luciferase, Bright-Glo); assay type: cell-based, Mycobacterium tuberculosis H37Rv; details: THP-1, 120 h
[5] = tested on: Mycobacterium tuberculosis growing inside human THP-1 monocytes; assay: Intracellular viability assay 1a (THP-1, luciferase, Steady-Glo); assay type: cell-based, Mycobacterium tuberculosis H37Rv; details: THP-1, 120 h
[6] = tested on: Mycobacterium bovis BCG str. Pasteur 1173P2; assay: microbe, parasite or virus in culture; assay type: cell-based
[7] = tested on: M. tuberculosis strain H37Rv; assay: Extracellular viability assay, glucose media (Method 2), resazurin MIC; assay type: cell-based; details: Mycobacterium tuberculosis
M. bovis 0AF2122 = assay: microbe, parasite or virus in culture; assay type: cell-based; details: Mycobacterium tuberculosis variant bovis, 0AF2122, read-out: MIC 2
M. africanum = assay: Extracellular MIC assay of Example 7, M. africanum; assay type: cell-based; details: Mycobacterium tuberculosis, cholesterol medium
[8] = tested on: Mycobacterium tuberculosis Erdman strain; assay: Extracellular viability assay, Erdman strain, cholesterol media (Method 3); assay type: cell-based; details: 0.01% cholesterol medium, 7 days + 48 h resazurin, average over 5 measurements
[9] = read-out: IC50 (uM) (cholesterol media)
[10] = read-out: IC50 (uM) (glucose media)

**Q.** For `NNC(=O)c1ccncc1` [Isoniazid], which IC50 [1] is on record?
**A.** Its IC50 is 70 nM.

**Q.** And the IC50 [2, 9]?
**A.** The IC50 was 0.2 µM.

**Q.** And the IC50 [2, 10]?
**A.** The IC50 was 0.5 µM.

**Q.** With `COc1c(N2C[C@@H]3CCCN[C@@H]3C2)c(F)cc2c(=O)c(C(=O)O)cn(C3CC3)c12` [Moxifloxacin, reference compound] as the compound, how does the “reduction of microorganism burden in lungs with respect to untreated controls (Day 9)” value ([3]; 30 mg/kg once a day for 8 days) read?
**A.** The value was 3.2 log10 CFU.

**Q.** What does the source list for `CO[C@H]1/C=C/O[C@@]2(C)Oc3c(C)c(O)c4c(O)c(c(/C=N/N5CCN(C)CC5)c(O)c4c3C2=O)NC(=O)/C(C)=C\C=C\[C@H](C)[C@H](O)[C@@H](C)[C@@H](O)[C@@H](C)[C@H](OC(C)=O)[C@@H]1C` [Rifampicin, reference compound]?
**A.** IC50 [4]: 2 nM; IC50 [1]: 200 nM; IC50 [2, 9]: 0.04 µM; IC50 [2, 10]: 0.02 µM; IC50 [5]: 10 nM; inhibition at 2 µM ([6]; Mycobacterium tuberculosis variant bovis BCG, BCG): 100%

**Q.** Which MIC [7] does the source give for `Cc1cccc(OC2CCN(Cc3cc(=O)[nH]c(=O)[nH]3)CC2)c1C` [Test Compound, 6-((4-(2,3-dimethylphenoxy)piperidin-1-yl)methyl)pyrimidine-2,4(1H,3H)-dione] here?
**A.** Its MIC is greater than 12.5 µM.

**Q.** What about the IC50 [4] of the same compound?
**A.** Its IC50 is 70 nM.

**Q.** What about the IC50 [1] of the same compound?
**A.** Its IC50 is 60 nM.

**Q.** And the IC50 [2, 9]?
**A.** The IC50 was 0.28 µM.

**Q.** And the IC50 [2, 10]?
**A.** The IC50 was greater than 20 µM.

**Q.** And the “reduction of microorganism burden in lungs with respect to untreated controls (Day 9)” value ([3]; 200 mg/kg once a day for 8 days)?
**A.** Its value is 1.6 log10 CFU.

**Q.** And the “oral bioavailability (conclusion from murine in vivo data)” value ([3]; mouse)?
**A.** Its value is “orally bioavailable”.

**Q.** And the IC50 [5]?
**A.** The IC50 was 390 nM.

**Q.** What about the “% Inhibition” value [6] of the same compound?
**A.** Its value is 46.18%.

**Q.** And the MIC (M. bovis 0AF2122)?
**A.** Its MIC is 0.78 µM (≈ 0.257 µg/mL).

**Q.** And the MIC (M. africanum; read-out: MIC 1)?
**A.** The MIC was 1.2 µM (≈ 0.395 µg/mL).

**Q.** What about the MIC (M. africanum; read-out: MIC 2) of the same compound?
**A.** The MIC was 1.2 µM (≈ 0.395 µg/mL).

**Q.** What about the IC50 [8] of the same compound?
**A.** The IC50 was 874 nM.
